Columns and labels:
[1] = tested on: Spathiphyllum embryogenic calluses; experiment: Effect of KODA concentration on differentiation from Spathiphyllum callus to normally regenerated plant bodies; assay type: cell-based; conditions: 0.03, 0.3 or 3 ppm KODA dropped onto calluses; 8 weeks
Source text: Embryogenic calluses subcultured in subculture medium were planted in fresh differentiation medium followed by dropping a 0.03 ppm, 0.3 ppm or 3 ppm aqueous solution of KODA onto the calluses and recording the number of normally regenerated plant bodies 8 weeks later.

[2] = tested on: Spathiphyllum embryogenic calluses; experiment: Effect of KODA treatment time on differentiation from Spathiphyllum callus to adventitious embryo and germinants; assay type: cell-based; conditions: for Dehydrated adventitious embryo weight per flask: embryos recovered 6 weeks after planting in differentiation medium
Method: Cultured seedlings subcultured under conditions of 25° C. in a dark location (photosynthetic photon flux density: 5.7 μmole/m^2/sec, day length: 16 hours) in a solid medium obtained by adding 3% sucrose and 0.8% agar (Wako Pure Chemical Industries, Tokyo, Japan) to MS (Murashige and Skoog) medium placed in a flat box (internal volume: 300 ml) manufactured by Asahi Techno Glass followed by adjusting the pH to 5.8 were used as cultured Spathiphyllum seedlings (variety: Double Take).
Sucrose (3%), 2,4-dichlorophenoxyacetic acid (4 ppm), benzyladenine (BA) (0.2 ppm), casein acid hydrolysate (100 ppm) and 5 mM 2-morpholinoethanesulfonic acid monohydrate (MES) were added to MS medium solidified with 0.8% agar to obtain a medium for callus induction and growth (to be referred to as “subculture medium”, pH 5.8). Leaf sheaths were collected from the cultured seedlings during week 4 of subculturing by peeling from the stump and using a roughly 2 cm section containing the peeled portion (leaf sheath base) as an explant. The explants were then planted in a flat box containing the subculture medium (50 ml). When the seedlings were cultured for 8 weeks in a dark location at 25° C., calluses were induced at the peeled portions of the planted seedlings. Embryogenic calluses were selected by subculturing these calluses in 0.2 g/container each of subculture medium and culturing for 1 month. The embryogenic calluses were able to be maintained for 2 years while retaining adventitious embryo induction potency by subculturing to the subculture medium every 4 weeks.
0.05 g aliquots of the embryonic calluses were planted in 500 ml Erlenmeyer flasks containing 160 ml of MS liquid medium containing sucrose (1%), fructose (1.1%), BA (0.1 ppm) and MES (5 mM) (pH 5.8, to be referred to as “differentiation medium”), followed by shake culturing (80 rpm) for 6 weeks at 25° C. in a dark location (day length: 16 hours, synthetic photon flux density: 22.8 μmole/m^2/sec) to obtain adventitious embryos. 0.2 g aliquots of these adventitious embryos were implanted in MS medium containing sucrose (3%) and obtained by solidifying with agar (0.8%) (pH 5.8, to be referred to as “germination medium”) followed by culturing for 8 weeks at 25° C. in a dark location (day length: 16 hours, photosynthetic photon flux density: 5.7 μmole/m^2/sec) to cause the adventitious embryos to germinate and obtain complete plants.
Embryogenic calluses subcultured in subculture medium were subcultured in fresh subculture medium followed by dropping a 3 ppm aqueous solution of KODA onto the calluses after 1 week (7 days), 2 weeks (14 days) or 3 weeks ([…]). The cultured calluses were planted in liquid differentiation medium 3 weeks after the start of subculturing, and the differentiated adventitious embryos were recovered 6 weeks later (FIG. 1), dehydrated and weighed after dehydrating. The adventitious embryos were then planted in germination medium and the numbers of resulting germinants were counted. The number of germinants per 1 g of dehydrated adventitious embryos was calculated from the measurement results (FIG. 2). […] The effect of KODA on inducing adventitious embryos in calluses was therefore thought to be specific to the time at which it is applied.

tobacco callus = experiment: Effect of KODA on differentiation from tobacco callus; assay type: cell-based, Nicotiana tabacum; conditions: 100 μM KODA immersion
Method: After washing tobacco (Nicotiana tabacum) seeds with 70% ethanol, the surfaces of the seeds were sterilized for 3 minutes with 5% sodium hypochlorite and 0.05% Tween 20 followed by washing 5 times with sterilized water. After washing, the seeds were immersed in an aqueous KODA solution (100 μM) followed by planting the washed seeds on solid MS medium (Wako Pure Chemical Industries) containing 3% sucrose, 0.8% agar (Wako Pure Chemical Industries) and 2,4-dichlorophenoxyacetic acid (Kanto Chemical, 3 ppm) with kinetin (Nakarai Tesque, 0.1 ppm) and adjusted to pH 5.7 to induce calluses for 3 weeks under conditions of 25° C. and a light-dark cycle of 16 hours.
The above ground portions of the tobacco seedlings that underwent callus induction were removed, and only the root portions in which calluses were present were treated by immersing in 100 μM KODA (KODA treatment group) or water (control group) followed by inducing differentiation of the above ground portions under conditions of 25° C. and a light-dark cycle of 16 hours in solid differentiation medium obtained by adding 3% sucrose, 0.8% agar (Wako Pure Chemical Industries), […] (Nacalai Tesque, 0.2 ppm) and 6-benzyladenine (Nacalai Tesque, 2 ppm) to MS medium contained in plastic Petri dishes and adjusting to pH 5.7. Culturing in the differentiation medium was carried out by transferring to fresh differentiation medium after culturing for 2 weeks, namely for a total of 4 weeks. The resulting above ground portions were excised with a scalpel. The excised above ground portions were immersed in 100 μM aqueous KODA solution (KODA treatment group) or water (control group) followed by planting it in MS medium (100 mL) contained in culture bottles (CB-3, As One), which is prepared by adding sucrose (3%) to MS medium, and adjusting pH to 5.7, and is solidified with 0.8% agar, and then cultured for 4 weeks under conditions of 25° C. and light-dark cycle of 16 hours so as to differentiate below ground portions. […]

[3] = tested on: Peucedanum japonicum greening tissue masses; experiment: Effect of KODA on differentiation from callus (greening tissue masses) in Peucedanum japonicum; assay type: cell-based; conditions: 1 μM KODA immersion
Method: Peucedanum japonicum seeds from Yonaguni Island in Okinawa Prefecture were planted in artificial soil (Metro-Mix 360, Sun Grow Horticulture Canada Ltd.) and allowed to germinate under conditions of 20° C. and a 12-hour light-dark cycle. Two months later, the seedling plants were taken out, only the above ground portion was washed well with water, and after disinfecting with 70% alcohol (10 seconds) and a 10-fold dilution of sodium hypochlorite (7 minutes), the seedling plants were rinsed four times with pure water. The petiols were cut out and a cut measuring about 5 mm in length was aseptically made therein followed by planting in MS medium (Wako Pure Chemical Industries, solidified with 0.7% agar) containing 2,4-dichlorophenoxyacetic acid (0.022 mg/L) and kinetin (10.75 mg/L) solidified with 0.7% agar. The petiols were cultured for 2 months under conditions of 25° C. and a light-dark cycle of 12 hours to grow greening tissue masses containing incomplete leaf tissue. Two months later, the greening tissue masses were immersed in 1 μM KODA (KODA treatment group) or water (control group), and placed on MS medium (solidified with 0.7% agar) to which benzyladenine (BA) was added to a concentration of 2 ppm with indoleacetic acid (IAA) to a concentration of 0.1 ppm, 0.5 ppm or 1 ppm. As can be understood from the table, although a large number of differentiated greening plant bodies were obtained from greening tissue masses immersed in KODA, only a small number of differentiated plant bodies were obtained in the control group (water) in the case of 1.0 ppm indoleacetic acid+2.0 ppm benzyladenine.

[4] = normal individuals, freeze-dried

Structure (SMILES): CC/C=C\C/C=C\CC(=O)C(O)CCCCCCCC(=O)O (centres unmarked) [KODA, 9-hydroxy-10-oxo-12(Z),15(Z)-octadecadienoic acid]
- number of redifferentiated (normally regenerated) plant bodies versus control (FIG. 4) [1]: increase in comparison with a control group at each concentration
- No. of germinants per flask ([2]; 3 ppm KODA dropped 1 week after subculture): 431
- No. of germinants per flask ([2]; 3 ppm KODA dropped 2 weeks after subculture): 702
- No. of germinants per flask ([2]; 3 ppm KODA dropped 3 weeks after subculture): 578
- Dehydrated adventitious embryo weight per flask ([2]; 3 ppm aqueous KODA dropped onto calluses 1 week after subculture): 7.1 g
- Dehydrated adventitious embryo weight per flask ([2]; 3 ppm aqueous KODA dropped onto calluses 2 weeks after subculture): 7.2 g
- Dehydrated adventitious embryo weight per flask ([2]; 3 ppm aqueous KODA dropped onto calluses 3 weeks after subculture): 6.8 g
- adventitious embryos recovered in comparison with control group (FIG. 1) ([2]; KODA treatment group, after two weeks): A large number of adventitious embryos were recovered
- normal individuals among the redifferentiated individuals (tobacco callus; control group 30%): 60%
- dry weight of above ground portions versus control (FIG. 6) (tobacco callus; [4]): no significant difference at a level of significance of 5%
- dry weight of below ground portions versus control (FIG. 6) (tobacco callus; [4]): a significant difference was confirmed at a level of significance of 5%
- No. of redifferentiated greening plant bodies ([3]; IAA (0.1 ppm) + BA (2.0 ppm)): 29
- No. of redifferentiated greening plant bodies ([3]; IAA (0.5 ppm) + BA (2.0 ppm)): 20
- No. of redifferentiated greening plant bodies ([3]; IAA (1.0 ppm) + BA (2.0 ppm)): 27

Reference: patent US20140134735A1, “Plant Cell Differentiation Promoter” (SHISEIDO COMPANY, LTD., priority 2011, published 2014)
